What was measured:
[1] = target: Insulin receptor (Homo sapiens) (UniProt P06213); assay: Inhibition of human IR (1005 to 1310 residues) assessed as residual activity at 1 uM using KKSRGDYMTMQIG as substrate after 40 mins by [gamma-33ATP] radiometric assay relative to control
[2] = system: Hepatocyte growth factor receptor (Homo sapiens), P08581 [M1250T]; assay: Inhibition of recombinant human MET A1209G/V1290L/M1268T mutant (974 to end residues) assessed as residual activity at 1 uM using KKKGQEEEYVFIE as substrate incubated for 40 mins in presence of [gamma-33ATP by scintillation counting based radiometry assay relative to control
[3] = target: T1, cGMP-dependent protein kinase 1 (Homo sapiens) (UniProt Q13976); assay: Inhibition of recombinant full-length human PKG1beta assessed as residual activity at 1 uM using RRRLSFAEPG as substrate measured after 40 mins in presence of [gamma33P]ATP by scintillation counting method relative to control
T1 sequence (whole entry): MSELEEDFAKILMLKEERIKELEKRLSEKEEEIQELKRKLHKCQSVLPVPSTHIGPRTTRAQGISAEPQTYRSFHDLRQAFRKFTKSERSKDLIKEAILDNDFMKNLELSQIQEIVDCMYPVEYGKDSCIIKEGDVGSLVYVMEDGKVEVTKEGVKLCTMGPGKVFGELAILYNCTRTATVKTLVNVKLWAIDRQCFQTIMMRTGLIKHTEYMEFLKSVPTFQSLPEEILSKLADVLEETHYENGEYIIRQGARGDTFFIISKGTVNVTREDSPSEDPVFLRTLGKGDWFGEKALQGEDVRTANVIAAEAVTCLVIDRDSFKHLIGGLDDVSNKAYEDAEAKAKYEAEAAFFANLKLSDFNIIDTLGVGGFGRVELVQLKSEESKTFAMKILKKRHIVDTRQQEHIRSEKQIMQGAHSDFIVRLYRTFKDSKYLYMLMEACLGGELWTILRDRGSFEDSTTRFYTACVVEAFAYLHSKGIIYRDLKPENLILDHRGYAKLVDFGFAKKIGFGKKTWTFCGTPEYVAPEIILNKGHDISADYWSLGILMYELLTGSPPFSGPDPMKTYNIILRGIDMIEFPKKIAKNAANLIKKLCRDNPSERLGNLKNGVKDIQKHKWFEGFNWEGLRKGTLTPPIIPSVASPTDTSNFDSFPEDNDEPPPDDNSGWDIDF

[4] = target: Calcium/calmodulin-dependent protein kinase type 1D (Homo sapiens) (UniProt Q8IU85); assay: Inhibition of recombinant full length human CaMK1delta assessed as residual activity at 1 uM […] incubated for 40 mins in presence of [gamma-33ATP] by scintillation counting based radiometry assay relative to control
[5] = system: Hepatocyte growth factor receptor (Homo sapiens), P08581 [Y1230C]; assay: Inhibition of recombinant human MET A1209G/V1290L/Y1248C mutant (974 to end residues) assessed as residual activity at 1 uM using KKKGQEEEYVFIE as substrate incubated for 40 mins in presence of [gamma-33ATP by scintillation counting based radiometry assay relative to control
Homo sapiens = species: Homo sapiens; assay: Inhibition of recombinant human BRSK2 S251I mutant (2 to end residues) assessed as residual activity at 1 uM using KKLNRTLSFAEPG substrate incubated for 40 mins in presence of [gamma-33ATP] by scintillation counting based radiometry assay relative to control
[6] = target: Wee1-like protein kinase (Homo sapiens) (UniProt P30291); assay: Inhibition of human Wee1 (214 to end residues) assessed as residual activity at 1 uM using LSNLYHQGKFLQTFCGSPLYRRR as substrate measured after 40 mins in presence of [gamma33P]ATP by scintillation counting method relative to control
[7] = target: Serine/threonine-protein kinase haspin (Homo sapiens) (UniProt Q8TF76); assay: Inhibition of human Haspin (471 to end residues ) assessed as residual activity at 1 uM using RARTLSFAEPG as substrate after 40 mins by [gamma-33ATP] radiometric assay relative to control
[8] = target: Non-receptor tyrosine-protein kinase TYK2 (Homo sapiens) (UniProt P29597); assay: Inhibition of human TYK2 (875 to end residues) assessed as residual activity at 1 uM using GGMEDIYFEFMGGKKK as substrate measured after 40 mins in presence of [gamma33P]ATP by scintillation counting method relative to control
[9] = target: Receptor-interacting serine/threonine-protein kinase 1 (Homo sapiens) (UniProt Q13546); assay: Inhibition of recombinant human RIPK1 (8 to 322 residues) assessed as residual activity at 1 uM using myelin basic protein as substrate measured after 120 mins in presence of [gamma33P]ATP by scintillation counting method relative to control
[10] = target: Tyrosine-protein kinase TXK (Homo sapiens) (UniProt P42681); assay: Inhibition of human Txk (256 to end residues) assessed as residual activity at 1 uM using GEEPLYWSFPAKKK as substrate measured after 40 mins in presence of [gamma33P]ATP by scintillation counting method relative to control
[11] = target: Receptor-interacting serine/threonine-protein kinase 2 (Homo sapiens) (UniProt O43353); assay: Inhibition of recombinant human RIPK2 (1 to 299 residues) assessed as residual activity at 1 uM using myelin basic protein as substrate measured after 120 mins in presence of [gamma33P]ATP by scintillation counting method relative to control
[12] = system: Phosphorylase b kinase gamma catalytic chain, liver/testis isoform (Homo sapiens), P15735 [F290L]; assay: Inhibition of recombinant human PhKgamma2 F290L mutant (1 to 301 residues) assessed as residual activity at 1 uM using KKLNRTLSFAEPG as substrate measured after 40 mins in presence of [gamma33P]ATP by scintillation counting method relative to control
[13] = target: Aurora kinase C (Homo sapiens) (UniProt Q9UQB9); assay: Inhibition of recombinant human Aurora C (35 to end residues) assessed as residual activity at 1 uM using AKRRRLSSLRA as substrate incubated for 40 mins in presence of [gamma-33ATP] by scintillation counting based radiometry assay relative to control
[14] = target: Ephrin type-A receptor 8 (Homo sapiens) (UniProt P29322); assay: Inhibition of recombinant human EphA8 (615 to 911 residues) assessed as residual activity at 1 uM using KTFCGTPEYLAPEVRREPRILSEEEQEMFRDFDYIADWC as substrate at 40 mins in presence of [gamma-33ATP] by scintillation counting based radiometry assay relative to control
[15] = target: Glycogen synthase kinase-3 alpha (Homo sapiens, UniProt P49840); assay: Inhibition of human GSK-3alpha S449A mutant (2 to end residues) using phospho GS2 peptide as substrate after 40 mins in presence of [gamma-33ATP] by scintillation counting method
[16] = target: Protein kinase C zeta type (Homo sapiens) (UniProt Q05513); assay: Inhibition of recombinant human PKCzeta (2 to end residues) assessed as residual activity at 1 uM using ERMRPRKRQGSVRRRV as substrate measured after 40 mins in presence of [gamma33P]ATP by scintillation counting method relative to control

Receptor-interacting serine/threonine-protein kinase 1 (Homo sapiens), sequence (Q13546 whole entry, the tested form may be a part): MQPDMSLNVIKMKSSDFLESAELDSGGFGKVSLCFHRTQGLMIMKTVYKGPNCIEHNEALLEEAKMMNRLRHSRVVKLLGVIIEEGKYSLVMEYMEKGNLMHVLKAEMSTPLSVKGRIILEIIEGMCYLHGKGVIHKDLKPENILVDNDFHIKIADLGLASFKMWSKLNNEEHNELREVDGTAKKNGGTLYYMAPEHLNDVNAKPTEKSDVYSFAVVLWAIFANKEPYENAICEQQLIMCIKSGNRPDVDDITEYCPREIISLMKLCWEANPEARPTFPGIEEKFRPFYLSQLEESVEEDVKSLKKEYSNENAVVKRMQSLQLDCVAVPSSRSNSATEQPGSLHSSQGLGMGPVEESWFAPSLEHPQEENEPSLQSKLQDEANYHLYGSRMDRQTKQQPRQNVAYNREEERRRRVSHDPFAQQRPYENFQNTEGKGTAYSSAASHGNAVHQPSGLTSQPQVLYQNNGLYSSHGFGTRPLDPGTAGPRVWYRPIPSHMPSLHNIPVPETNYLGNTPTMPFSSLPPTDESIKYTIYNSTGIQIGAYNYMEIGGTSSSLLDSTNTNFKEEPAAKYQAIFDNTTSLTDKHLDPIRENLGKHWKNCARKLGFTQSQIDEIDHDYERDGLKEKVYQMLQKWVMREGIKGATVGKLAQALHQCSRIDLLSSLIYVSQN
Serine/threonine-protein kinase haspin (Homo sapiens), sequence (Q8TF76 whole entry): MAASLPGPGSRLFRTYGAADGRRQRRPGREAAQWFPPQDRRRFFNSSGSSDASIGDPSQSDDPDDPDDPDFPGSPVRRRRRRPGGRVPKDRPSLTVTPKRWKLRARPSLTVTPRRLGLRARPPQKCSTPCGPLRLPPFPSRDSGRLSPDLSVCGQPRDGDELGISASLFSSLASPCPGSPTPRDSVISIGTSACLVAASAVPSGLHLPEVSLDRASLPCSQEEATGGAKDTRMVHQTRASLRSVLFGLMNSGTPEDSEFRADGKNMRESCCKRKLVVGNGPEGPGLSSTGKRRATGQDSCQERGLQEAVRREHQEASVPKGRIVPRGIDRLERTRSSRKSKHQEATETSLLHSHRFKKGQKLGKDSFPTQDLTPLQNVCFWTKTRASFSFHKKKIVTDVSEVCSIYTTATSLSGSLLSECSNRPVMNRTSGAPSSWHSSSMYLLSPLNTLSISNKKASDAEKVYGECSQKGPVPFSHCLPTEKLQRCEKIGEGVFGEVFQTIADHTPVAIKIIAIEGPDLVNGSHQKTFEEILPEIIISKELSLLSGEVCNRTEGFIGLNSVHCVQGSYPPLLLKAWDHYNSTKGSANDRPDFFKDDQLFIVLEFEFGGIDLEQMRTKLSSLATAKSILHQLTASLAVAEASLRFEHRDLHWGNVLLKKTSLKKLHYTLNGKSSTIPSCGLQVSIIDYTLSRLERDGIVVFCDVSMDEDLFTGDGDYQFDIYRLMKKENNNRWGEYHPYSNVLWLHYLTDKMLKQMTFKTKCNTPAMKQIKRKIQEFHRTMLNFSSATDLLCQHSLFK
Glycogen synthase kinase-3 alpha, sequence (P49840 whole entry): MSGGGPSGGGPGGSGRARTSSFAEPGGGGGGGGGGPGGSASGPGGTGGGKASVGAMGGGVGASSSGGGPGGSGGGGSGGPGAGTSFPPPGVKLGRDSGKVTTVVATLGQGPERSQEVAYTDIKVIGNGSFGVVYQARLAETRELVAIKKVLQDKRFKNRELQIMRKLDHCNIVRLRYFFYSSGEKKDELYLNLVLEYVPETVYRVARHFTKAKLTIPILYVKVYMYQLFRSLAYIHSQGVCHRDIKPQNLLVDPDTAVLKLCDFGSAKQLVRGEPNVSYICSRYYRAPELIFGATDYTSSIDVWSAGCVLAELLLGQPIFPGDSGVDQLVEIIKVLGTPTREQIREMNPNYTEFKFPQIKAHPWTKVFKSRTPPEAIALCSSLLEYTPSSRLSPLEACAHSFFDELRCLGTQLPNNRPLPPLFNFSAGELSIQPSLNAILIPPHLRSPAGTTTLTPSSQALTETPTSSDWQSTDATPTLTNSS
Ephrin type-A receptor 8 (Homo sapiens), sequence (P29322 whole entry, the tested form may be a part): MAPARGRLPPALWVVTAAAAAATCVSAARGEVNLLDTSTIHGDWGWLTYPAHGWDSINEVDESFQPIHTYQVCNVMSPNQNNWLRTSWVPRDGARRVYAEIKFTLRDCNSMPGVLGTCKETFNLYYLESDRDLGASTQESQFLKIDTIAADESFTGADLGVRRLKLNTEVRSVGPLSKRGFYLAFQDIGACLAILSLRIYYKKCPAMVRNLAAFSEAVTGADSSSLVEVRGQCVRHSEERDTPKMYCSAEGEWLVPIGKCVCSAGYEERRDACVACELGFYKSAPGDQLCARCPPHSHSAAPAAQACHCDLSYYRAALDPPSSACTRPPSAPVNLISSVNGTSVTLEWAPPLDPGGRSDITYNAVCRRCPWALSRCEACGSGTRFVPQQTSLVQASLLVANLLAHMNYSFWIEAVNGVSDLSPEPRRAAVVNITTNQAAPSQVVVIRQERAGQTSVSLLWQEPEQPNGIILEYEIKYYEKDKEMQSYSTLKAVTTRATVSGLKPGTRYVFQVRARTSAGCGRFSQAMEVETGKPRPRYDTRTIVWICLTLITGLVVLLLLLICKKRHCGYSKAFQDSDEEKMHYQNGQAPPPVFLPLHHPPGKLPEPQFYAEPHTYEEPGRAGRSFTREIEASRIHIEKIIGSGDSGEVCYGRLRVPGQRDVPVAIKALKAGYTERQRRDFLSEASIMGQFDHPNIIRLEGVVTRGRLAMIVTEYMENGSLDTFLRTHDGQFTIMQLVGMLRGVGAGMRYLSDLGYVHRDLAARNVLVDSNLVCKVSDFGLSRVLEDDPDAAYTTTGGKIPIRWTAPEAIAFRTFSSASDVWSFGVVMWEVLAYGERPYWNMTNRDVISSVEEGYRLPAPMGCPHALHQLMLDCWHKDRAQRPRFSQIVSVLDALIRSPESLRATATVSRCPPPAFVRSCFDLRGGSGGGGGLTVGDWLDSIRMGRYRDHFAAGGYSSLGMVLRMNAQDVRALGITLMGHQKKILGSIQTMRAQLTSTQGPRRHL
Receptor-interacting serine/threonine-protein kinase 2 (Homo sapiens), sequence (O43353 whole entry, the tested form may be a part, canonical isoform): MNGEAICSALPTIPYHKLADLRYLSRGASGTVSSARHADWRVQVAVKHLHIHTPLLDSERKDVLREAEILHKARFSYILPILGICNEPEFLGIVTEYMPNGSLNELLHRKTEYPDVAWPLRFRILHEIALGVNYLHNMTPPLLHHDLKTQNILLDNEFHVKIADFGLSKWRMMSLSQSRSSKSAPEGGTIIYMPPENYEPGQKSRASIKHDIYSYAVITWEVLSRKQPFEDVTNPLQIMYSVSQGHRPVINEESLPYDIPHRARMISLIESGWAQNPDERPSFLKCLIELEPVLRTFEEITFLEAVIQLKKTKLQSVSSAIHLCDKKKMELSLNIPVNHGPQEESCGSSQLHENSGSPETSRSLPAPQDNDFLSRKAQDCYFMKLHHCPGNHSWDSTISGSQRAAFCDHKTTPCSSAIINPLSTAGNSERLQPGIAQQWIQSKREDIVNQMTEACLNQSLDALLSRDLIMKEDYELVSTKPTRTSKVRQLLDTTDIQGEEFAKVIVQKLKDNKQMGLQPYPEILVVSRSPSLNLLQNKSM
Tyrosine-protein kinase TXK (Homo sapiens), sequence (P42681 whole entry, the tested form may be a part): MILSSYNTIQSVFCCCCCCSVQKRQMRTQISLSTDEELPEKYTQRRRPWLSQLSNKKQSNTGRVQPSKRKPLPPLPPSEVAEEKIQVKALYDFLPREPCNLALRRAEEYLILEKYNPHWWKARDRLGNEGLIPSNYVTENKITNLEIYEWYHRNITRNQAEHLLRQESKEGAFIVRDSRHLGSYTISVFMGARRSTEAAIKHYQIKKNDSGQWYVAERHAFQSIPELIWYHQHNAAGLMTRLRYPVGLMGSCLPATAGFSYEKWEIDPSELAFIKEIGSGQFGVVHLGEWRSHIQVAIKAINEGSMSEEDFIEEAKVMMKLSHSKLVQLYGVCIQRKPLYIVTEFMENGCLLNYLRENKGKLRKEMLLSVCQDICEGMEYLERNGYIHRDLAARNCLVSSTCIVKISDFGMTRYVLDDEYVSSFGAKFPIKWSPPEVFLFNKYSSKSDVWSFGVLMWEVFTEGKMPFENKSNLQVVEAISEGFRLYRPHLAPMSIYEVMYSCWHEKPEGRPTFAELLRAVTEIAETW
Aurora kinase C (Homo sapiens), sequence (Q9UQB9 whole entry, the tested form may be a part): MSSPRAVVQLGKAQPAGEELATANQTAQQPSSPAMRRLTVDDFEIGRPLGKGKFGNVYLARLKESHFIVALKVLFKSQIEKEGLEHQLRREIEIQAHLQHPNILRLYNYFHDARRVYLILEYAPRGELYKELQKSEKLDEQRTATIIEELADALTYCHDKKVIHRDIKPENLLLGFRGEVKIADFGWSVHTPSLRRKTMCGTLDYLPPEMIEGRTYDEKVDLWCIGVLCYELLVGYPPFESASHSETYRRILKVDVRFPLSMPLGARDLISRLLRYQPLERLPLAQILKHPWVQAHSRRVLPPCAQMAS
Phosphorylase b kinase gamma catalytic chain, liver/testis isoform (Homo sapiens), P15735 [F290L], sequence (P15735 whole entry F290L, the tested form may be a part, canonical isoform): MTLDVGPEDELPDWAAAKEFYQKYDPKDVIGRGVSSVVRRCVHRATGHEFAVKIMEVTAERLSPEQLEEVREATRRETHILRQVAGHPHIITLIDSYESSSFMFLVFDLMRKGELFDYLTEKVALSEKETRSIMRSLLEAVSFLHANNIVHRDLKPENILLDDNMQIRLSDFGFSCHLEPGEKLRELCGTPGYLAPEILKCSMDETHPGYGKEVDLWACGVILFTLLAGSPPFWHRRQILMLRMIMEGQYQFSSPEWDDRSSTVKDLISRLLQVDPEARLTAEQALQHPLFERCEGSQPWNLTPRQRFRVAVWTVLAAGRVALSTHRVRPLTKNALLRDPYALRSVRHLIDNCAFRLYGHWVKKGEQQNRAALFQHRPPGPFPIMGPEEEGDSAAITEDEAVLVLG

## N=C1NC(=O)/C(=C\c2ccc(-c3cccc([N+](=O)[O-])c3)o2)S1
[1]
  Activity: 97%
[2]
  Activity: 82%
[3]
  Activity: 82%
[4]
  Activity: 93%
[5]
  Activity: 98%
Homo sapiens
  Activity: 42%
[6]
  Activity: 103%
[7]
  Activity: 59%
[8]
  Activity: 107%
[9]
  Activity: 100%
[10]
  Activity: 100%
[11]
  Activity: 66%
[12]
  Activity: 107%
[13]
  Activity: 109%
[14]
  Activity: 94%
[15]
  IC50: 49 nM
[16]
  Activity: 108%

## C=CCOC(=O)c1cc(-c2ccc(/C=C3/NC(=S)NC3=O)o2)ccc1Cl
[1]
  Activity: 108%
[2]
  Activity: 101%
[3]
  Activity: 100%
[4]
  Activity: 87%
[5]
  Activity: 114%
Homo sapiens
  Activity: 71%
[6]
  Activity: 106%
[7]
  Activity: 87%
[8]
  Activity: 94%
[9]
  Activity: 106%
[10]
  Activity: 104%
[11]
  Activity: 62%
[12]
  Activity: 104%
[13]
  Activity: 104%
[14]
  Activity: 99%
[15]
  IC50: 33 nM
[16]
  Activity: 96%
